Experimental data from patent publication US5656613A, “Treatment of hyperandrogenic conditions” (Merck & Co., Inc., priority 1995, dated 1997).
Entries after “also recorded” stand apart in the source; their conditions may differ. Like-named read-outs stand apart in the source and are kept apart here.

Columns and labels:
dihydrotestosterone = conditions: clinical trials, cited from earlier work
[1] = molecular target: T1, human prostate (type 2) isozyme of 5α-reductase (Homo sapiens, UniProt P31213)
T1 sequence (P31213 1-254): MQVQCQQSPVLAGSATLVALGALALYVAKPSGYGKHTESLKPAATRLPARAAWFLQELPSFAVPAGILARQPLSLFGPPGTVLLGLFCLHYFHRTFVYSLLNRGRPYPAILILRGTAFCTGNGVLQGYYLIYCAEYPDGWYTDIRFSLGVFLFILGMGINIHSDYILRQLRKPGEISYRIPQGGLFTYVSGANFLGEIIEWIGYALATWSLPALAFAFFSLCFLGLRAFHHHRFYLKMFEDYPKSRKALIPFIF
Protocol: The rate constant for dissociation of the enzyme-inhibitor complex was determined from the rate of release of radioactivity from enzyme-[^3 H]finasteride complex in the presence of 100-fold excess unlabeled finasteride. The enzyme-[^3 H]finasteride complex was formed in a solution containing excess enzyme: 21.9 nM enzyme (6 mg protein, ~0.04% pure, taken from the relatively homogeneous 100,000×g supernatant fraction). […] After 2 hours, exchange was initiated by making the solution 933 nM in unlabeled finasteride (including 1% ethanol). The solution was divided into aliquots (100 μL) which were incubated at 37° C.; each day a sample was removed and frozen away at -80° C. for future determination of bound and free inhibitor.
To obtain sufficient transformed inhibitor for mass spectral analysis, a preparation of baculovirus-expressed enzyme was employed that consisted of all protein sedimenting between 1,000 to 100,000×g. […] The solution was then dialyzed overnight at 4° C. in 14,000 Da cutoff dialysis tubing (SPECTRAPOR 2) against 2 changes of 4L water containing 1 mM MOPS and 1 mM EDTA at pH 7.20.

[2] = molecular target: T1, human prostate (type 2) isozyme of 5α-reductase; assay: Dissociation of enzyme-[^3 H]finasteride complex (release of radioactivity), type 2; type: binding; design: host or cells: native human prostate tissue or recombinant from a baculovirus expression system; considered interchangeable; conditions: 21.9 nM enzyme, 9.33 nM [^3 H]finasteride, 466 μM NADPH, pH 7.2, 37° C.
Protocol: (§1) The concentrations of bound and free radioactivity were determined by ultrafiltration on 10,000 Da cutoff membranes (AMICON, Centricon-10), which were centrifuged several hours at 4° C.
(§2) Nonspecific binding was assessed by reversing the order of addition, first blocking the […] with excess unlabeled inhibitor before addition of […].

[3] = molecular target: T1, human prostate (type 2) isozyme of 5α-reductase; design: host or cells: native human prostate tissue or recombinant from a baculovirus expression system; considered interchangeable; conditions: cited from earlier work
[4] = molecular target: T2, human skin (type 1) isozyme of 5α-reductase (Homo sapiens, UniProt P18405); conditions: cited from earlier work
T2 construct: made in house
T2 sequence (P18405 1-259): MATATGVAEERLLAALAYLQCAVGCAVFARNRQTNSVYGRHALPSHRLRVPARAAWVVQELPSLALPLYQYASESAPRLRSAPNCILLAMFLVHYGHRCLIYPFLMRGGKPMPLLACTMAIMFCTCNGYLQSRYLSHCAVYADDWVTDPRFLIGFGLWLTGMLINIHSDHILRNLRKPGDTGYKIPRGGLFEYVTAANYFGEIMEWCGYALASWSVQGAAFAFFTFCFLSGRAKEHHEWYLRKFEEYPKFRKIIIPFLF

[5] = molecular target: T1, human prostate (type 2) isozyme of 5α-reductase; assay: Release of radiolabel on denaturation of enzyme-[^3 H]finasteride complex; type: binding; design: host or cells: native human prostate tissue or recombinant from a baculovirus expression system; considered interchangeable
Protocol: as §1, §2

[6] = molecular target: T2, human skin (type 1) isozyme of 5α-reductase; assay: Inhibition of human skin (type 1) 5α-reductase by finasteride; type: biochemical; conditions: type 1, from ratio of rate constants; read-out: steady-state Ki *
Description: (§3) When tissue extracts were the source of enzyme, the quenched reactions were clarified by centrifugation at 10,000×g before analysis.
(§4) The human isozymes were employed exclusively in this research. The native isozymes were from scalp (type 1 ) or prostate (type 2) tissues, and the recombinant forms were produced by a baculovirus expression system. Except where specified, all data refer to the prostate (type 2) isozyme, the primary target of finasteride. All of the experiments described in this application were also conducted with the recombinant type 1 isozyme, either in parallel or for confirmation.
(§5) The data for slow-binding inhibition were analyzed as reviewed by Morrison et al., Adv. Enzymol. 61:201-301 (1988). The kinetic model is shown in the Description of the Invention. The time courses were fit to an integrated first-order rate equation (Equation 1), where A is product concentration, .nu.o is the initial velocity, .nu.s is the infinite-time velocity, and kobs is the first-order rate constant for progression of the enzyme between the two equilibrium states.

[7] = molecular target: T1, human prostate (type 2) isozyme of 5α-reductase; assay: Slow-binding / fixed-time inhibition of human prostate (type 2) 5α-reductase by finasteride; type: biochemical; design: host or cells: native human prostate tissue or recombinant from a baculovirus expression system; considered interchangeable
Protocol: as §3
Where indicated, measurements were also conducted under conditions that have more traditionally been employed for this enzyme at pH 5.50 and 37° C.
The enzyme was either used directly as a crude cell homogenate, or isolated as microsomal suspensions by differential centrifugation. In general, the tissue or cell pellet was combined with an equal volume of buffer and dispersed using a high shear force homogenizer (POLYTRON, high speed) for several minutes in an ice bath below 10° C. […] Saturating levels of cofactor were usually included to improve enzyme stability.
as §4, §5
vo =kcat (E)(S)/(Km (1+([…]))+S) Equation 2
The rate constant for conversion of the weak complex to the high-affinity one, k2, was obtained by nonlinear regression to Equation 3, which also is a function of Ki.
[(I/Ki)/(1+(S/Km)+(I/Ki)]Equation 3

CC(C)(C)NC(=O)[C@H]1CC[C@H]2[C@@H]3CC[C@H]4NC(=O)C=C[C@]4(C)[C@H]3CC[C@]12C [Compound 1, 17β-(N-tert-butylcarbamoyl)-3-oxo-4-aza-5α-androst-1-ene-3-one]
time for dihydrotestosterone to return to basal levels after withdrawal (dihydrotestosterone; Stoner, Gormley et al.): two | reduction of dihydrotestosterone levels (dihydrotestosterone; circulating concentrations comparable to Ki): reduced levels of dihydrotestosterone to values approaching those found in individuals genetically deficient in the prostate isozyme | inhibition on complex formation ([1]; 1.39 μM enzyme, 1.14 μM finasteride, 573 μM NADPH, pH 7.20, 45 min): 73% | [^3 H]-1,2-dihydrofinasteride as share of free tritium released from the [^3 H]finasteride-enzyme complex ([1]; off-rate experiment, one month): > 95% | untransformed [^3 H]finasteride released ([1]; off-rate experiment, one month): no untransformed [^3 H]finasteride was detected | inhibition on complex formation [2]: 36% | Ki ([3]; Faller et al., native human prostate enzyme, pH 7.0, read-out: dissociation constant Ki): > 150 nM | mode of inhibition ([3]; fixed-time assays, previously shown): competitive with testosterone | Ki ([3]; human prostate enzyme, as first perceived in fixed-time assays, read-out: Ki (simple, rapidly-reversible inhibitor)): 26 nM | inhibition of type 2 isozyme ([3]; prostate): potently inhibited by finasteride | Ki ([3]; read-out: Ki of essentially irreversible enzyme-inhibitor complex, Faller et al., human prostate isozyme): < 1 nM | second-order rate constant for formation of complex ([4]; skin (type 1) isozyme, Tian et al.): 4000 M⁻¹ s⁻¹ | Ki ([4]; skin (type 1) isozyme, Tian et al., read-out: Ki of preliminary weak complex): 360 nM | inhibition of type 1 isozyme ([4]; skin, listed as finasteride): not a significant inhibitor of human skin (type 1 ) isozyme at doses employed in the treatment of BPH; also recorded: relatively insensitive to finasteride | radiolabel released on denaturation ([5]; 7M guanidine hydrochloride): > 99% | radiolabel released on denaturation ([5]; 45% aqueous ethanol): > 77% | radiolabel released on denaturation ([5]; boiling water bath, 2 minutes): > 96% | Ki [6]: < 0.2 nM | halflife for dissociation (or turnover) of enzyme-inhibitor complex, predicted from association rate ([7]; 37° C., assuming Ki * <100 pM): > 6 h | halflife of conversion to high-affinity complex ([7]; assuming minimum Ki): < 30 s | suppression of activity at infinite time ([7]; lowest practical concentrations of finasteride (2 nM)): nearly complete suppression of the activity | Ki for the preliminary complex (theoretical line, minimum value) ([7]; type 2): 100 nM | Ki ([7]; type 2 enzyme, read-out: overall equilibrium constant Ki *): < 0.1 nM
